Source: patent US6967196B1, “Sulfonamide compounds and uses thereof” (Bristol-Myers Squibb Company, priority 1999, dated 2005)
Structures can show the parent of a compound that is named as a salt. Where two headings read alike, the source gives them in different places.

System: amyloid β production in transfected H4 (human neuroglioma) cells stably expressing APP constructs
Test: In vitro cell-based assay of inhibitors of amyloid β production (ELISA)
Details: amyloid β in medium by ELISA
Summary of the method: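 Sandwich ELISA read-out: Aβ in conditioned medium captured via C-terminal epitope mAb, detected with N-terminus-specific rabbit polyclonal, quantified from a standard curve. Compounds 10-100 μM, ~16 h exposure. Active = ≥50% inhibition vs control without significant cytotoxicity; dose-response follows.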

[1] = Homo sapiens, 16 h, transfected H4 cells stably expressing APP constructs, approximately 16 hours incubation, read-out: ACTIVITY (IC50, inhibition of amyloid β production)
[2] = transfected H4 cells stably expressing APP, approx. 16 h incubation, read-out: ACTIVITY (IC50, inhibition of amyloid β production)
[3] = transfected H4 cells stably expressing APP constructs, approximately 16 hours incubation, read-out: ACTIVITY (IC50, inhibition of amyloid β production)
[4] = transfected H4 cells stably expressing APP, approximately 16 hours incubation, read-out: ACTIVITY (IC50, inhibition of amyloid β production)
[5] = Homo sapiens, 16 h, transfected H4 cells stably expressing APP, approximately 16 hours incubation, read-out: ACTIVITY (IC50, inhibition of amyloid β production)
[6] = Homo sapiens, 16 h, transfected H4 cells expressing APP, approximately 16 hours incubation, read-out: ACTIVITY (IC50, inhibition of amyloid β production)

C[C@H](CCCS(=O)(=O)N1CCOCC1)N(c1cc(Cl)ccc1Cl)S(=O)(=O)c1ccc(Cl)cc1 [Example 1209, 4-chloro-N-[2,5-dichlorophenyl]-N-[4-[(4-morpholinyl)sulfonyl]-1(R)-methylbutyl]benzenesulfonamide]
IC50 [1]: ≤ 25 nM

COC(=O)[C@H](CC(C)C)NC(=O)CCC[C@@H](C)N(c1cc(Cl)ccc1F)S(=O)(=O)c1ccc(Cl)cc1 [Example 541]
IC50 [2]: 100 to 500 nM

C[C@H](CCN1CCCCC1CS(C)(=O)=O)N(c1cc(Cl)ccc1Cl)S(=O)(=O)c1ccc(Cl)cc1 (stereo partly drawn) [Example 1102, 4-chloro-N-(2,5-dichlorophenyl)-N-[3-[2-[(methylsulfonyl)methyl]-1-piperidinyl]-1(R)-methylpropyl]benzenesulfonamide]
IC50 [1]: ≤ 25 nM

2-((1R)-1-{[(4-chlorophenyl)sulfonyl]-2,5-difluoroanilino}ethyl)-5-fluorobenzyl 2-phenylethylcarbamate [Example 640]
IC50 [2]: 100 to 500 nM

CSC1CCN(CC[C@@H](C)N(c2cc(Cl)ccc2Cl)S(=O)(=O)c2ccc(Cl)cc2)C1 (stereo partly drawn) [Example 1147, 4-chloro-N-(2,5-dichlorophenyl)-N-[3-[(3-methylthio)-1-pyrrolidinyl]-1(R)-methylpropyl]benzenesulfonamide]
IC50 [3]: 100 to 500 nM

2-[2-((1R)-1-{[(4-chlorophenyl)sulfonyl]-2,5-difluoroanilino}ethyl)phenyl]ethyl 1,2,3,4-tetrahydro-1-naphthalenylcarbamate [Example 644]
IC50 [2]: 100 to 500 nM

CC1CN(C(=O)CCCC[C@@H](C)N(c2cc(Cl)ccc2F)S(=O)(=O)c2ccc(Cl)cc2)CCS1(=O)=O (stereo partly shown) [Example 1272]
IC50 [3]: ≤ 25 nM

C[C@H](c1ccc(F)cc1CCCC(=O)O)N(c1cc(F)ccc1F)S(=O)(=O)c1ccc(Cl)cc1 [Example 1068, 4-[2-((1R)-1-{[(4-chlorophenyl)sulfonyl]-2,5-difluoroanilino}ethyl)-5-fluorophenyl]butanoic acid]
IC50 [4]: > 500 nM

C[C@H](c1ccc(F)cc1CCCC(=O)O)N(c1cc(F)ccc1F)S(=O)(=O)c1ccc(Cl)cc1 [Example 1069, 4-[2-((1R)-1-{[(4-chlorophenyl)sulfonyl]-2,5-difluoroanilino}ethyl)-5-fluorophenyl]butanoic acid]
IC50 [4]: > 500 nM

N-{4-[2-(1-{[(4-chlorophenyl)sulfonyl]-2,5-difluoroanilino}ethyl)phenoxy]butyl}-N-methyl-1-adamantanecarboxamide [Example 846]
IC50 [4]: 100 to 500 nM

CC[C@H](CSCC(=O)O)N(c1cc(Cl)ccc1Cl)S(=O)(=O)c1ccc(Cl)cc1 [Example 1186, (5R)-5-[(2,5-dichlorophenyl)-[(4-chlorophenyl)sulfonyl]-amino]-3-thioheptanoic acid]
IC50 [3]: 25 to 50 nM

2-((1R)-1-{[(4-chlorophenyl)sulfonyl]-2,5-difluoroanilino}ethyl)-5-fluorobenzyl 2-methoxyethylcarbamate [Example 729]
IC50 [2]: 100 to 500 nM

O=S(=O)(c1ccc(Cl)cc1)N(Cc1ccccc1OCCCN1CCC(O)CC1)c1ccccc1 [Example 298, 4-Chloro-N-{2-[3-(4-hydroxy-1-piperidinyl)propoxy]benzyl}-N-phenylbenzenesulfonamide Hydrochloride]
IC50 (transfected H4 cells stably expressing APP, approximately 16 hours incubation, Table B, read-out: ACTIVITY (IC50, inhibition of amyloid β production)): 50 to 100 nM

CC(C)CSCCC[C@@H](C)N(c1cc(Cl)ccc1Cl)S(=O)(=O)c1ccc(Cl)cc1 [Example 1188]
IC50 [3]: 100 to 500 nM

O=S(=O)(c1ccc(Cl)cc1)N(Cc1ccccc1O)c1cc(F)ccc1F [Example 1054, 4-chloro-N-(2,5-difluorophenyl)-N-(2-hydroxybenzyl)benzenesulfonamide]
IC50 [5]: > 500 nM

COC(=O)C[S+]([O-])CC[C@@H](C)N(c1cc(Cl)ccc1Cl)S(=O)(=O)c1ccc(Cl)cc1 (stereo partly drawn) [Example 1187, methyl(6R)-6-[(2,5-dichlorophenyl)-[(4-chlorophenyl)sulfonyl]-amino]-3-thioheptanoic acid, 3-oxide]
IC50 [3]: 50 to 100 nM

C[C@H](CCS(=O)(=O)CC(=O)O)N(c1cc(Cl)ccc1Cl)S(=O)(=O)c1ccc(Cl)cc1 [Example 1197, (6R)-6-[(2,5-dichlorophenyl)-[(4-chlorophenyl)sulfonyl]-amino]-3-thioheptanoic acid, 3,3-dioxide]
IC50 [3]: > 500 nM

2-((1R)-1-{[(4-chlorophenyl)sulfonyl]-2,5-difluoroanilino}ethyl)benzyl diethylcarbamate [Example 894]
IC50 [4]: > 500 nM

C[C@H](CCCS(=O)(=O)N1CCC1)N(c1cc(F)ccc1F)S(=O)(=O)c1ccc(Cl)cc1 [Example 1200, 4-chloro-N-[2,5-difluorophenyl]-N-[4-[(1-azetidinyl)sulfonyl]-1(R)-methylbutyl]benzenesulfonamide]
IC50 [1]: ≤ 25 nM

S-ethyl-3-[2-({[(4-chlorophenyl)sulfonyl]-2,5-difluoroanilino}methyl)phenoxy]propyl(methyl)thiocarbamate [Example 757]
IC50 [2]: 100 to 500 nM

2,4,6-trichloro-N-{3-[2-(1-{[(4-chlorophenyl)sulfonyl]-2,5-difluoroanilino}ethyl)phenoxy]propyl}benzamide [Example 728]
IC50 [2]: 100 to 500 nM

O=S(=O)(c1ccc(Cl)cc1)N(Cc1ccccc1OCCCN1CCC(O)CC1)c1ccccc1 [Example 645, 4-chloro-N-{2-[3-(4-hydroxy-1-piperidinyl)propoxy]benzyl}-N-phenylbenzenesulfonamide hydrochloride]
IC50 (Homo sapiens, 16 h, transfected H4 cells stably expressing APP, approx. 16 h incubation, read-out: ACTIVITY (IC50, inhibition of amyloid β production)): 100 to 500 nM

N-{3-[2-(1-{[(4-chlorophenyl)sulfonyl]-2,5-difluoroanilino}ethyl)phenoxy]propyl}-N,4-dimethylbenzamide [Example 741]
IC50 [2]: 100 to 500 nM

O=S(=O)(c1ccc(Cl)cc1)N(Cc1cc(Cl)ccc1OCCCN1CCCCC1)c1ccccc1 [Example 230, 4-Chloro-N-{5-chloro-2-[3-(1-piperidinyl)propoxy]benzyl}-N-phenylbenzenesulfonamide Hydrochloride]
IC50 (Table B, transfected H4 cells stably expressing APP, approximately 16 hours incubation, read-out: ACTIVITY (inhibitory concentration IC50, inhibition of amyloid β production)): 25 to 50 nM

CC(C)Oc1c(NCCC[C@@H](C)N(c2cc(Cl)ccc2Cl)S(=O)(=O)c2ccc(Cl)cc2)c(=O)c1=O [Example 1128, 4-chloro-N-(2,5-dichlorophenyl)-N-[4-(2-isopropoxy-3,4-dioxo-1-cyclobutenyl)amine-1(R)-methylbutyl]benzenesulfonamide]
IC50 [3]: 50 to 100 nM

N-{3-[2-({[(4-chlorophenyl)sulfonyl]-2,5-difluoroanilino}methyl)phenoxy]propyl}-N-methyl-4-(trifluoromethoxy)benzamide [Example 873]
IC50 [4]: 100 to 500 nM

N-{3-[2-({[(4-chlorophenyl)sulfonyl]-2,5-difluoroanilino}methyl)phenoxy]propyl}-N-methyl-4-(trifluoromethyl)benzamide [Example 898]
IC50 [4]: > 500 nM

C[C@H](c1ccc(F)cc1CCCC(=O)O)N(c1cc(F)ccc1F)S(=O)(=O)c1ccc(Cl)cc1 [Example 1072, 4-[2-((1R)-1-{[(4-chlorophenyl)sulfonyl]-2,5-difluoroanilino}ethyl)-5-fluorophenyl]butanoic acid]
IC50 [4]: > 500 nM

benzyl 3-[2-(1-{[(4-chlorophenyl)sulfonyl]-2,5-difluoroanilino}ethyl)phenoxy]propyl(methyl)carbamate [Example 678]
IC50 [2]: 100 to 500 nM

C[C@H](CCCOC(=O)NCCCn1ccnc1)N(c1cc(Cl)ccc1CO)S(=O)(=O)c1ccc(Cl)cc1 [Example 1290]
IC50 [6]: > 500 nM

CC(CCOC(=O)NCCn1ccnc1)N(c1cc(Cl)ccc1CO)S(=O)(=O)c1ccc(Cl)cc1 (stereo not shown) [Example 1291]
IC50 [6]: ≤ 25 nM

(2R, 3R)-2,4-bis[(4-methylbenzoyl)oxy]butanedioic acid compound with 4-chloro-N-(2,5-difluorophenyl)-N-((1R)-1-{2-[3-(1H-imidazol-1- [Example 1049]
IC50 [4]: > 500 nM

CC[S+]([O-])CCC[C@@H](C)N(c1cc(F)ccc1F)S(=O)(=O)c1ccc(Cl)cc1 (stereo partly drawn) [Example 1174, 4-chloro-N-[2,5-difluorophenyl]-N-[1(R)-methyl-(4-ethylsulfinyl)butyl]benzenesulfonamide]
IC50 [3]: ≤ 25 nM

C[C@H](CCCCN1CCCC(S(C)(=O)=O)C1)N(c1cc(Cl)ccc1Cl)S(=O)(=O)c1ccc(Cl)cc1 (stereo partly drawn) [Example 1115, 4-chloro-N-(2,5-dichlorophenyl)-N-[5-[(3-methylsulfonyl)-1-piperidinyl]-1(R)-methylpentyl]benzenesulfonamide]
IC50 [3]: 25 to 50 nM

CN(C)CCCOc1ccccc1CN(c1ccccc1)S(=O)(=O)c1ccc([N+](=O)[O-])cc1 [Example 1083, N-{2-[3-(dimethylamino)propoxy]benzyl}-4-nitro-N-phenylbenzenesulfonamide]
IC50 [1]: > 10000 nM

Cc1ccc(CCNC(=O)[C@@H](C)N(c2cc(Cl)ccc2F)S(=O)(=O)c2ccc(Cl)cc2)cc1 [Example 1325]
IC50 [6]: > 500 nM

Cc1cccc(C(=O)N2CCCCC2CCOc2ccccc2CN(c2cc(F)ccc2F)S(=O)(=O)c2ccc(Cl)cc2)c1 (stereo not shown) [Example 860, 4-chloro-N-(2,5-difluorophenyl)-N-(2-{2-[1-(3-methylbenzoyl)-2-piperidinyl]ethoxy}benzyl)benzenesulfonamide]
IC50 [5]: 100 to 500 nM
